Data: PubChem BioAssay AID1745844 (Carcinogenic Potency Database (CPDB), 2022)
Activity calls are given as the source filed them. The rule behind the calls is not given here.

Tested on: rodent lifetime carcinogenesis bioassay, tumor incidence TD50
Assay: carcinogenic potency in animals, long-term in vivo studies, CPDB compilation (AID 1745844)

Compound: CC(CCl)OC(C)CCl (stereo unspecified)
- TD50 (mouse, strain B6C3F1, females, by gavage, site: any site (literature study), lesion: several types, types named in the paper, dosed 103 weeks, study length 106 weeks): 231 mg/kg/day
- TD50 (mouse, strain B6C3F1, females, by gavage, site: lung, lesion: alveolar/bronchiolar adenoma + alveolar/bronchiolar carcinoma, dosed 103 weeks, study length 106 weeks): 311 mg/kg/day
- TD50 (mouse, strain B6C3F1, females, by gavage, site: lung, lesion: alveolar/bronchiolar adenoma, dosed 103 weeks, study length 106 weeks): 381 mg/kg/day
- TD50 (mouse, strain B6C3F1, females, by gavage, site: stomach, lesion: squamous-cell carcinoma + squamous-cell papilloma, dosed 103 weeks, study length 106 weeks): 1650 mg/kg/day
- TD50 (mouse, strain B6C3F1, males, by gavage, site: any site (literature study), lesion: several types, types named in the paper, dosed 103 weeks, study length 105 weeks): 116 mg/kg/day
- TD50 (mouse, strain B6C3F1, males, by gavage, site: liver, lesion: hepatocellular adenoma + hepatocellular carcinoma + neoplastic nodule, dosed 103 weeks, study length 105 weeks): 138 mg/kg/day
- TD50 (mouse, strain B6C3F1, males, by gavage, site: liver, lesion: hepatocellular adenoma + hepatocellular carcinoma, dosed 103 weeks, study length 105 weeks): 138 mg/kg/day
- TD50 (mouse, strain B6C3F1, males, by gavage, site: liver, lesion: hepatocellular carcinoma, dosed 103 weeks, study length 105 weeks): 229 mg/kg/day
- TD50 (mouse, strain B6C3F1, males, by gavage, site: lung, lesion: alveolar/bronchiolar adenoma + alveolar/bronchiolar carcinoma, dosed 103 weeks, study length 105 weeks): 259 mg/kg/day
- TD50 (mouse, strain B6C3F1, males, by gavage, site: lung, lesion: alveolar/bronchiolar adenoma, dosed 103 weeks, study length 105 weeks): 306 mg/kg/day
- TD50 (rat, strain Fischer 344, females, by gavage, site: any site (literature study), lesion: several types, types named in the paper, dosed 103 weeks, study length 105 weeks): 65.6 mg/kg/day (inactive)
- TD50 (rat, strain Fischer 344, males, by gavage, site: any site (literature study), lesion: several types, types named in the paper, dosed 103 weeks, study length 104 weeks): 101 mg/kg/day (inactive)

Compound: O=C(O)Cc1c[nH]c2ccccc12
- carcinogen call (mouse, strain B6AKF1, females, oral dosing, site: any site (literature study), lesion: several types, types named in the paper, dosed 76 weeks, study length 76 weeks): negative (inactive)
- carcinogen call (mouse, strain B6AKF1, females, oral dosing, site: liver, lesion: hepatoma, dosed 76 weeks, study length 76 weeks): negative (inactive)
- carcinogen call (mouse, strain B6AKF1, females, oral dosing, site: lung, lesion: adenoma, dosed 76 weeks, study length 76 weeks): negative (inactive)
- carcinogen call (mouse, strain B6AKF1, males, oral dosing, site: any site (literature study), lesion: several types, types named in the paper, dosed 76 weeks, study length 76 weeks): negative (inactive)
- carcinogen call (mouse, strain B6AKF1, males, oral dosing, site: liver, lesion: hepatoma, dosed 76 weeks, study length 76 weeks): negative (inactive)
- carcinogen call (mouse, strain B6AKF1, males, oral dosing, site: lung, lesion: adenoma, dosed 76 weeks, study length 76 weeks): negative (inactive)
- TD50 (mouse, strain B6C3F1, females, oral dosing, site: any site (literature study), lesion: several types, types named in the paper, dosed 76 weeks, study length 76 weeks): 538 mg/kg/day (inactive)
- carcinogen call (mouse, strain B6C3F1, females, oral dosing, site: liver, lesion: hepatoma, dosed 76 weeks, study length 76 weeks): negative (inactive)
- TD50 (mouse, strain B6C3F1, females, oral dosing, site: lung, lesion: adenoma, dosed 76 weeks, study length 76 weeks): 538 mg/kg/day (inactive)
- TD50 (mouse, strain B6C3F1, males, oral dosing, site: any site (literature study), lesion: several types, types named in the paper, dosed 76 weeks, study length 76 weeks): 40.3 mg/kg/day (inactive)
- TD50 (mouse, strain B6C3F1, males, oral dosing, site: liver, lesion: hepatoma, dosed 76 weeks, study length 76 weeks): 113 mg/kg/day (inactive)
- TD50 (mouse, strain B6C3F1, males, oral dosing, site: lung, lesion: adenoma, dosed 76 weeks, study length 76 weeks): 500 mg/kg/day (inactive)

Compound: O=NN(CC(F)(F)F)CC(F)(F)F
- TD50 (rat, strain Fischer 344, females, in drinking water, site: liver, lesion: malignant tumor, dosed 30 weeks, study length 130 weeks): 4.98 mg/kg/day (inactive)
- carcinogen call (rat, strain Sprague-Dawley, males, in drinking water, site: several sites, sites named in the paper, lesion: malignant tumor, dosed 30 weeks, study length 114 weeks): negative (inactive)

Compound: Cc1cccc(N)c1
- TD50 (mouse, strain CD-1 HaM/ICR, females, in feed, site: any site (literature study), lesion: several types, types named in the paper, dosed 77 weeks, study length 81 weeks): 1950 mg/kg/day (inactive)
- carcinogen call (mouse, strain CD-1 HaM/ICR, females, in feed, site: any site (literature study), lesion: several types, types named in the paper, dosed 77 weeks, study length 90 weeks): negative (inactive)
- carcinogen call (mouse, strain CD-1 HaM/ICR, females, in feed, site: liver, lesion: several types, types named in the paper, dosed 77 weeks, study length 81 weeks): negative (inactive)
- TD50 (mouse, strain CD-1 HaM/ICR, females, in feed, site: liver, lesion: several types, types named in the paper, dosed 77 weeks, study length 90 weeks): 9990 mg/kg/day (inactive)
- carcinogen call (mouse, strain CD-1 HaM/ICR, females, in feed, site: lung, lesion: several types, types named in the paper, dosed 77 weeks, study length 81 weeks): negative (inactive)
- carcinogen call (mouse, strain CD-1 HaM/ICR, females, in feed, site: lung, lesion: several types, types named in the paper, dosed 77 weeks, study length 90 weeks): negative (inactive)
- TD50 (mouse, strain CD-1 HaM/ICR, males, in feed, site: liver, lesion: hepatoma, dosed 77 weeks, study length 90 weeks): 1440 mg/kg/day
- TD50 (mouse, strain CD-1 HaM/ICR, males, in feed, site: liver, lesion: several types, types named in the paper, dosed 77 weeks, study length 90 weeks): 6770 mg/kg/day
- carcinogen call (mouse, strain CD-1 HaM/ICR, males, in feed, site: lung, lesion: several types, types named in the paper, dosed 77 weeks, study length 90 weeks): negative (inactive)
- TD50 (rat, strain Charles River CD (Sprague-Dawley), males, in feed, site: any site (literature study), lesion: several types, types named in the paper, dosed 77 weeks, study length 98 weeks): 98.4 mg/kg/day (inactive)
- carcinogen call (rat, strain Charles River CD (Sprague-Dawley), males, in feed, site: liver, lesion: several types, types named in the paper, dosed 77 weeks, study length 98 weeks): negative (inactive)

Compound: N#CS
- carcinogen call (rat, strain Fischer 344, females, in drinking water, site: liver, lesion: one or several types, types not named, dosed 112 weeks, study length 130 weeks): negative (inactive)
- TD50 (rat, strain Fischer 344, males, in drinking water, site: liver, lesion: one or several types, types not named, dosed 112 weeks, study length 130 weeks): 2760 mg/kg/day (inactive)
- TD50 (rat, strain Fischer 344, males, in drinking water, site: skin and subcutis, lesion: one or several types, types not named, dosed 112 weeks, study length 130 weeks): 224 mg/kg/day (inactive)

Compound: O=[N+]([O-])c1ccc(-c2nc(N(CCO)CCO)c3ccccc3n2)s1
- TD50 (rat, strain Sprague-Dawley, males, in feed, site: any site (literature study), lesion: several types, types named in the paper, dosed 50 weeks, study length 52 weeks): 1.1 mg/kg/day
- TD50 (rat, strain Sprague-Dawley, males, in feed, site: mammary gland, lesion: adenocarcinoma, dosed 50 weeks, study length 52 weeks): 11.5 mg/kg/day
- TD50 (rat, strain Sprague-Dawley, males, in feed, site: mammary gland, lesion: several types, types named in the paper, dosed 50 weeks, study length 52 weeks): 6.45 mg/kg/day
- TD50 (rat, strain Sprague-Dawley, males, in feed, site: small intestine, lesion: leiomyosarcoma, dosed 50 weeks, study length 52 weeks): 3.6 mg/kg/day
- TD50 (rat, strain Sprague-Dawley, males, in feed, site: small intestine, lesion: sarcoma, dosed 50 weeks, study length 52 weeks): 3.14 mg/kg/day

Compound: CCSC[C@H](N)C(=O)O
- TD50 (rat, strain Wistar, males, in feed, site: abdomen, lesion: liposarcoma, dosed 58 weeks, study length 89 weeks): 3630 mg/kg/day (inactive)
- TD50 (rat, strain Wistar, males, in feed, site: any site (literature study), lesion: several types, types named in the paper, dosed 58 weeks, study length 89 weeks): 3630 mg/kg/day (inactive)
- carcinogen call (rat, strain Wistar, males, in feed, site: liver, lesion: one or several types, types not named, dosed 58 weeks, study length 89 weeks): negative (inactive)

Compound: COc1cc(OC)c2c3c(c(=O)oc2c1)C(=O)CC3
- carcinogen call (rat, strain Fischer, males, by gavage, site: liver, lesion: one or several types, types not named, dosed 52 weeks, study length 87 weeks): negative (inactive)

Compound: CCOC(=O)N(C)N=O
- TD50 (hamster, strain Syrian Golden, both sexes, by gavage, site: esophagus, lesion: epidermoid carcinoma, dosed 27 weeks, study length 73 weeks): 0.127 mg/kg/day
- carcinogen call (hamster, strain Syrian Golden, both sexes, by gavage, site: forestomach, lesion: epidermoid carcinoma, dosed 27 weeks, study length 73 weeks): positive

Compound: Cc1cc2ncccc2c2nc(N)n(C)c12
- TD50 (mouse, strain C57BL/6NCrj, females, in feed, site: cecum, lesion: adenocarcinoma, dosed 85 weeks, study length 85 weeks): 50 mg/kg/day
- TD50 (mouse, strain C57BL/6NCrj, females, in feed, site: colon, lesion: adenocarcinoma, dosed 85 weeks, study length 85 weeks): 92.8 mg/kg/day
- TD50 (mouse, strain C57BL/6NCrj, females, in feed, site: large intestine, lesion: adenocarcinoma, dosed 85 weeks, study length 85 weeks): 32.3 mg/kg/day
- TD50 (mouse, strain C57BL/6NCrj, females, in feed, site: liver, lesion: fibrosarcoma, dosed 85 weeks, study length 85 weeks): 20.7 mg/kg/day
- TD50 (mouse, strain C57BL/6NCrj, females, in feed, site: liver, lesion: hepatocellular adenoma, dosed 85 weeks, study length 85 weeks): 80 mg/kg/day
- TD50 (mouse, strain C57BL/6NCrj, females, in feed, site: liver, lesion: hepatocellular carcinoma, dosed 85 weeks, study length 85 weeks): 62.1 mg/kg/day
- TD50 (mouse, strain CDF1, females, in feed, site: forestomach, lesion: several types, types named in the paper, dosed 91 weeks, study length 91 weeks): 10.7 mg/kg/day
- TD50 (mouse, strain CDF1, females, in feed, site: forestomach, lesion: squamous-cell carcinoma, dosed 91 weeks, study length 91 weeks): 24.5 mg/kg/day
- TD50 (mouse, strain CDF1, females, in feed, site: liver, lesion: hepatocellular carcinoma, dosed 91 weeks, study length 91 weeks): 65.6 mg/kg/day
- TD50 (mouse, strain CDF1, females, in feed, site: liver, lesion: several types, types named in the paper, dosed 91 weeks, study length 91 weeks): 27.1 mg/kg/day
- TD50 (mouse, strain CDF1, females, in feed, site: lung, lesion: several types, types named in the paper, dosed 91 weeks, study length 91 weeks): 25.1 mg/kg/day (inactive)
- TD50 (mouse, strain CDF1, males, in feed, site: forestomach, lesion: several types, types named in the paper, dosed 91 weeks, study length 91 weeks): 14.5 mg/kg/day
- TD50 (mouse, strain CDF1, males, in feed, site: forestomach, lesion: squamous-cell carcinoma, dosed 91 weeks, study length 91 weeks): 22.4 mg/kg/day
- TD50 (mouse, strain CDF1, males, in feed, site: lung, lesion: several types, types named in the paper, dosed 91 weeks, study length 91 weeks): 148 mg/kg/day (inactive)

Compound: ClCOCc1ccc(COCCl)cc1
- TD50 (mouse, strain Ha/ICR, females, i.p., site: abdomen, lesion: sarcoma, dosed 77 weeks, study length 77 weeks): 3.11 mg/kg/day

Compound: CCOc1ccc(NC(C)=O)cc1[N+](=O)[O-]
- carcinogen call (mouse, strain B6C3F1, females, in feed, site: any site (literature study), lesion: several types, types named in the paper, dosed 78 weeks, study length 97 weeks): negative (inactive)
- TD50 (mouse, strain B6C3F1, females, in feed, site: lung, lesion: alveolar/bronchiolar adenoma + alveolar/bronchiolar carcinoma, dosed 78 weeks, study length 97 weeks): 30800 mg/kg/day
- TD50 (mouse, strain B6C3F1, males, in feed, site: any site (literature study), lesion: several types, types named in the paper, dosed 78 weeks, study length 98 weeks): 3490 mg/kg/day
- TD50 (mouse, strain B6C3F1, males, in feed, site: liver, lesion: hepatocellular adenoma + hepatocellular carcinoma + neoplastic nodule, dosed 78 weeks, study length 98 weeks): 2270 mg/kg/day
- TD50 (mouse, strain B6C3F1, males, in feed, site: liver, lesion: hepatocellular adenoma + hepatocellular carcinoma, dosed 78 weeks, study length 98 weeks): 2270 mg/kg/day
- carcinogen call (rat, strain Fischer 344, females, in feed, site: any site (literature study), lesion: several types, types named in the paper, dosed 78 weeks, study length 106 weeks): negative (inactive)
- TD50 (rat, strain Fischer 344, females, in feed, site: liver, lesion: hepatocellular adenoma + hepatocellular carcinoma + neoplastic nodule, dosed 78 weeks, study length 106 weeks): 6240 mg/kg/day
- carcinogen call (rat, strain Fischer 344, males, in feed, site: any site (literature study), lesion: several types, types named in the paper, dosed 78 weeks, study length 105 weeks): negative (inactive)

Compound: C[C@@H]1O[C@@]2(CS1)CN1CCC2CC1
- carcinogen call (rat, strain F344/DuCrj, females, by gavage, site: liver, lesion: one or several types, types not named, dosed 52 weeks, study length 52 weeks): negative (inactive)
- carcinogen call (rat, strain F344/DuCrj, males, by gavage, site: liver, lesion: one or several types, types not named, dosed 52 weeks, study length 52 weeks): negative (inactive)
